# Entries after “also recorded” stand apart in the source; their conditions may differ.
# Columns and labels:
# Assay type in all cases: cell-based, human
# Peptide-specific T cells = assay: T cell cross-reactivity between JCV and BKV epitopes (intracellular cytokine assay); conditions: for BKV cross-reactivity: CD4^+ T cell responses to JCV peptides; for recognition of BKV and JCV peptide by T cells expanded with the epitope: expanded with one epitope, re-stimulated with JCV or BKV epitope, IFN-γ
# From the text: ICS FACS plots show the expression of IFN-γ in T cells expanded with either BKV epitope (SSGTQQWRGLARYFK (SEQ ID NO: 33)) or JCV epitope (RSGSQQWRGLSRYFK (SEQ ID NO: 12)). These primed T cells were stimulated using both BKV and JCV peptide showing that the T cells expanded with either of these epitopes recognize both BKV and JCV peptide sequences.
# Peptide-specific T cells were expanded in vitro following stimulation with JCV epitope or BKV epitope and then re-stimulated with the corresponding […] peptide epitope (see Table 2) so as to observe any cross-reactive response between JCV and BKV epitopes. Specifically, PBMC from healthy volunteers were cultured with synthetic JCV peptide epitope RSGSQQWRGLSRYFK (SEQ ID NO: 12) or with synthetic BKV peptide epitope SSGTQQWRGLARYFK (SEQ ID NO: 33). Following initial expansion, each sample was re-stimulated (re-called) with either JCV epitope RSGSQQWRGLSRYFK (SEQ ID NO: 12) or BKV epitope SSGTQQWRGLARYFK (SEQ ID NO: 33) (wherein samples re-called with the same epitope act as internal controls). The reactivity of the expanded T cells was assessed using standard intracellular cytokine assays (see FIG. 4).
# CD4^+ T cells = assay: intracellular cytokine assay of T cells expanded with synthetic JCV peptides; conditions: PBMC from healthy volunteers cultured 12-14 days with cytokines
# Experimental: JCV-specific T cells were expanded in vitro following stimulation with pooled JCV epitopes. Specifically, PBMC from healthy volunteers were stimulated with synthetic JCV peptides (Table 1) for 1 hour and then cultured for 12-14 days in the presence of different cytokine combinations, including IL-2 (10 ng/ml), IL7 (10 ng/ml), IL12 (10 ng/ml) and/or IL15 (10 ng/ml). The JCV specificity of the expanded T cells was assessed using standard intracellular cytokine assays (Table 6).
# HLA class II = HLA class II restriction analysis with peptide-loaded LCLs, IFN-γ ICS assay; conditions: LCLs matching one single HLA allele of the donor loaded with peptide for 1 hour
# Experimental: Specifically, the HLA class II-restriction of VDLHAFLSQAVFSNR (SEQ ID NO: 2) (LT29), FLSQAVFSNRTVASF (SEQ ID NO: 3) (LT30) and TVASFAVYTTKEKAQ (SEQ ID NO: 4) (LT32) peptides as HLA DRB1*10:01 is shown. Briefly, a panel of lymphoblastoid cells (LCLs) matching one single allele of the HLA type of the donor were chosen and loaded with respective peptide for 1 hour. The loaded LCLs were then used as stimulator cells in an IFN-γ ICS assay. The peptide, when presented by the MHC, elicits an IFN-γ response in JCV-specific T cells. […]
# JCV-specific T cells = assay: two-dimensional peptide matrix epitope mapping, IFN-γ ICS assay; conditions: FACS, individual LTA overlapping peptides
# From the text: JCV-specific T cells expanded in vitro using the OPPs were further characterized by identifying specific T cell determinants. […] The response using the subpools were overlayed on a two dimensional matrix, thus showing the common individual peptides among the pools. […] Figure discloses SEQ ID NOS 2-4, respectively, in order of appearance.
# In order to precisely map the HLA class I and class II-restricted T cell responses, individual overlapping peptides (15 aa long overlapping by 10 aa) were sourced for LTA, STA and VP1 proteins for T cell epitope mapping. A two-dimensional peptide matrix was used to distribute all individual peptides into small overlapping peptide pools. For example, in the case of Large T Antigen, the matrix is arranged such that each peptide of the pools (LTA1 to LTA24) occurs once on the ordinate. The T cell response for each pool was measured by intracellular cytokine-staining (ICS) IFN-γ assay (see FIG. 2A) and the data overlayed on a two dimensional matrix as follows.
# Thus, the common individual peptides among pools that elicited a T cell response were identified, i.e., peptide 32 (P32) at the intersection of row LTA4 and column LTA16 and peptides P29 and P30 at the intersection of row LTA3 with columns LTA23 and LTA24.
Sequence,BKV cross-reactivity (Peptide-specific T cells),%IFNγ^+CD4^+ with 0.1 μg/ml peptide (CD4^+ T cells) [%],%IFNγ^+CD4^+ with 1 μg/ml peptide (CD4^+ T cells) [%],HLA Restriction (HLA class II),T cell response for individual peptide in the IFN-γ ICS assay (JCV-specific T cells),recognition of BKV and JCV peptide by T cells expanded with the epitope (Peptide-specific T cells)
DPDMMRYVDKYGQLQ,Yes,2.1,4.5,DRB1*04:02,–,–
EQYMAGVAWIHCLLP (listed as Betapolyomavirus secuhominis),Yes,2.5,2.9,DRB1*04:01 &; also recorded: DRB1*03:01,–,–
ERLNFELGVGIDQFM (listed as Betapolyomavirus secuhominis),Yes,2.2,6.32,DRB1*15:01,–,–
FLSQAVFSNRTVASF (listed as Betapolyomavirus secuhominis),Yes,34.1,38.39,DRB1*10:01,elicit a JCV-specific T cell response,–
GGHNILFFLTPHRHR (listed as Betapolyomavirus secuhominis),Yes,1.28,6.15,DRB1*16:O1,–,–
IDQFMVVFEDVKGTG (listed as Betapolyomavirus secuhominis),Yes,18.5,24.8,DRB1*14:04/; also recorded: DQB1*05:03,–,–
KMKRMNFLYKKMEQG (listed as Betapolyomavirus secuhominis),Yes,0.4,1.4,DRB1*15:01,–,–
LRSSPLVWIDCYCFD (listed as Betapolyomavirus secuhominis),–,0.4,1.81,DRB1*15:01,–,–
MDKVLNREESMELMD (listed as Betapolyomavirus secuhominis) [identical BKV homologue],Yes,1.65,5.26,DRB1*01:01,–,–
MTREEMLVERFNFLL (listed as Betapolyomavirus secuhominis),Yes,2,3.8,DRB1*04:01 &; also recorded: DRB1*03:01,–,–
NFLYKKMEQGVKVAH (listed as Betapolyomavirus secuhominis),–,0.2,1.2,DRB1*15:01,–,–
RKAYLKKCKELHPDK (listed as Betapolyomavirus secuhominis),Yes,9.2,10.4,DRB1*13:01,–,–
RNRKFLRSSPLVWID (listed as Betapolyomavirus secuhominis),–,0.6,3.03,DRB1*15:01,–,–
RSGSQQWRGLSRYFK,Yes,7.8,8.4,DRB1*11:01,–,recognize both the BKV and JCV peptide sequence
RYWLFKGPIDSGKTT [identical BKV homologue],Yes,2.35,4.05,DRB1*15:01,–,–
SICQQAVDTVAAKQR (listed as Betapolyomavirus secuhominis),Yes,0.24,4.38,DRB1*04:01 &; also recorded: DQB1*02:02,–,–
SITEVECFLTPEMGD (listed as Betapolyomavirus secuhominis),Yes,2.8,2.71,DRB1*01:01 &; also recorded: DQB1*05:01,–,–
SKNQKSICQQAVDTV (listed as Betapolyomavirus secuhominis) [identical BKV homologue],Yes,0.41,2.31,DRB1*04:01 &; also recorded: DQB1*02:02,–,–
SSGTQQWRGLARYFK,–,–,–,–,–,recognize both the BKV and JCV peptide sequence
TCGNILMWEAVTLKT (listed as Betapolyomavirus secuhominis),Yes,2.65,4.83,DRB1*15:01,–,–
TVASFAVYTTKEKAQ (listed as Betapolyomavirus secuhominis),Yes,6.4,7.34,DRB1*10:01,elicit a JCV-specific T cell response,–
VDLHAFLSQAVFSNR (listed as Betapolyomavirus secuhominis),Yes,20.26,25.49,DRB1*10:01,elicit a JCV-specific T cell response,–

# Source: patent US20230192774A1, “IMM[…] POLYOMAVIRUSES” (The Council of the Queensland Institute of Medical Research, priority 2019, published 2023)
